Test [1] deals with T1, PIK3CA_C242 (Homo sapiens, UniProt P42336).
T1 construct: endogenous in cells; host or cells: Jurkat cell lysate
As to the kind of experiment: Proteomic TE50 (IA-DTB / TMT mass spectrometry) in Jurkat cell lysate. It is filed as binding. The conditions noted are these: 1 hour at rt, 7-point dose response. The gist of the method:
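Cysteine engagement was read by targeted TMT MS3 of the IA-DTB-labelled, streptavidin-enriched C242 tryptic peptide. Beforehand, Jurkat lysate was exposed to a 7-point 1:5 compound series for 1 h at rt, then to 200 μM IA-DTB for 1 h. Reporter S/N curves gave TE50.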

The target of test [2] is T2, PIK3CA (Homo sapiens, UniProt P42336).
T2 construct: endogenous in cells; host or cells: Jurkat cell lysate
As to the kind of experiment: In vitro ELISA target engagement assay for PIK3CA in Jurkat cellular lysate (competition with PIK3CA Biotin Probe). The settings on record: 1 hour at rt, then 500 nM PIK3CA Biotin Probe, read-out: Elisa Target Engagement Assay (TE50). Format: binding. A digest of the protocol: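 Competition format in Jurkat lysate: compound (serial dilutions, top 200 μM) for 1 h at rt, then 500 nM final biotinylated PIK3CA probe for 1 h at rt. Sandwich ELISA with capture antibody and Neutravidin-HRP luminescence read-out measured probe-labelled PIK3CA, giving TE50.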
For orientation: ELISA stands for enzyme-linked immunosorbent assay.

T1 sequence (P42336 whole entry): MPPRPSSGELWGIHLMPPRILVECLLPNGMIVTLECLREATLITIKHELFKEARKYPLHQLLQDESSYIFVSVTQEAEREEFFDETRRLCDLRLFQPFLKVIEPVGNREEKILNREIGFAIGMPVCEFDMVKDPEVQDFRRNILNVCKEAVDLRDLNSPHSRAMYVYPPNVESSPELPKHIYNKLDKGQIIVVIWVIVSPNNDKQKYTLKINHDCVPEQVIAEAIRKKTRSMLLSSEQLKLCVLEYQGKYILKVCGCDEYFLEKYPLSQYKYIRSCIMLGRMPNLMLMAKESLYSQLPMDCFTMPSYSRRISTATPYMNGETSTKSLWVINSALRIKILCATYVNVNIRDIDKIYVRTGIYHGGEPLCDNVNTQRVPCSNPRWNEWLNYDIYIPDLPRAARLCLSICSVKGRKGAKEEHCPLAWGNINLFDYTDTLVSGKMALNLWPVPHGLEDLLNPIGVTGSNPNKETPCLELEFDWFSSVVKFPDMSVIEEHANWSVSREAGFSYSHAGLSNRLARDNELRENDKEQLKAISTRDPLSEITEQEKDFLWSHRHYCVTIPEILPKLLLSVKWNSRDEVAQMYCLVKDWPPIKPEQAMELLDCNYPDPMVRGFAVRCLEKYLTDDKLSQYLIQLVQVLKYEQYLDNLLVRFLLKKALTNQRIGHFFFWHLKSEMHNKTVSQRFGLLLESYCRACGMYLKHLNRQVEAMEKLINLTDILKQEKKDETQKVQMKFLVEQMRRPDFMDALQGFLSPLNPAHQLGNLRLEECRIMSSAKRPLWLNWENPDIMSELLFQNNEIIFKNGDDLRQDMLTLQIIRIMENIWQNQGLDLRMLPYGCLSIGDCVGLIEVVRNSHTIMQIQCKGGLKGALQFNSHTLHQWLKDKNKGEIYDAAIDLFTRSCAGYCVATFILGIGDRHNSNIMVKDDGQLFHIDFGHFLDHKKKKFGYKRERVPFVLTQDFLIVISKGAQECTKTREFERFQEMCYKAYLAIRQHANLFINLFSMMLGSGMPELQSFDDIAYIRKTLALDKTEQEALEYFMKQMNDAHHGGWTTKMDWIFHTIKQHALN
T1 sequence (P27986 whole entry partner): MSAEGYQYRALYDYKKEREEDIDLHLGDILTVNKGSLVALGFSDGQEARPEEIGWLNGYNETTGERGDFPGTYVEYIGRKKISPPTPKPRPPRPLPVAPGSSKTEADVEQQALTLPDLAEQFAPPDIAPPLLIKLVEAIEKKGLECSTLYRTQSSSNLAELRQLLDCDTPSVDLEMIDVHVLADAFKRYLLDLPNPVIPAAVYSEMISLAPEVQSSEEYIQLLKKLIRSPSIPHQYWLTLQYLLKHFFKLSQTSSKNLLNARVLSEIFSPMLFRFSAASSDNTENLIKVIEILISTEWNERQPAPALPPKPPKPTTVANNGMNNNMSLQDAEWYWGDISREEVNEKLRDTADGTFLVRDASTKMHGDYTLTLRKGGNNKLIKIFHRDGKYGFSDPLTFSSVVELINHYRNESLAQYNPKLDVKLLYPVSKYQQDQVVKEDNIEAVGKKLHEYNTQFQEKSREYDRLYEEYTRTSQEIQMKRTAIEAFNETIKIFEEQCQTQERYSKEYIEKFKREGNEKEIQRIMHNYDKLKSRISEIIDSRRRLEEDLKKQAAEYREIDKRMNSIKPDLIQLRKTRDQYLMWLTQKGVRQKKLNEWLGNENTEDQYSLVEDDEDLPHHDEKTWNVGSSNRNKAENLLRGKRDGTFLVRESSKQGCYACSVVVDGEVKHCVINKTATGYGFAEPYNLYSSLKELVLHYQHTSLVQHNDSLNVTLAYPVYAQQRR
T2 sequence (P42336 whole entry): as the sequence (P42336 whole entry) above
T2 sequence (P27986 whole entry partner): as the sequence (P27986 whole entry partner) above

Consider `C[C@@H](/C=C\S(C)(=O)=O)NC(=O)C1(F)CCN(S(=O)(=O)c2ccc(Cl)cc2-c2cccc(OCc3cccnc3)c2)CC1` [Compound 260, (S,Z)-1-((5-chloro-3′-(pyridin-3-ylmethoxy)-[1,1′-biphenyl]-2-yl)sulfonyl)-4-fluoro-N-(4-(methylsulfonyl)but-3-en-2-yl)piperidine-4-carboxamide], for which the values for the IC50 in test [1] and in test [2] were 210 nM and 150 nM, respectively.
On to `COc1ccc(Cl)c(-c2cc(Cl)ncc2S(=O)(=O)N2CCC(F)(C(=O)N[C@@H](C)/C=C\S(C)(=O)=O)CC2)c1` [Compound 271, (S,Z)-1-((6-chloro-4-(2-chloro-5-methoxyphenyl)pyridin-3-yl)sulfonyl)-4-fluoro-N-(4-(methylsulfonyl)but-3-en-2-yl)piperidine-4-carboxamide], for which the IC50 in test [1] came out at 209 nM; in test [2], 170 nM.
The like results for `COc1cc(-c2ccccc2Cl)c(S(=O)(=O)N2CCC(F)(C(=O)N[C@H](C)/C=C\S(C)(=O)=O)CC2)cc1Cl` [Compound 29, (R,Z)-1-((2′,4-dichloro-5-methoxy-[1,1′-biphenyl]-2-yl)sulfonyl)-4-fluoro-N-(4-(methylsulfonyl)but-3-en-2-yl)piperidine-4-carboxamide] were, in that order, 390 nM and 570 nM.
The like results for `CC(C)c1ccc(S(=O)(=O)N2CCC(F)(C(=O)N[C@H](C)/C=C\S(C)(=O)=O)CC2)c(-c2ccccc2Cl)c1` [Compound 114, (R,Z)-1-((2′-chloro-5-isopropyl-[1,1′-biphenyl]-2-yl)sulfonyl)-4-fluoro-N-(4-(methylsulfonyl)but-3-en-2-yl)piperidine-4-carboxamide] were, in that order, 680 nM and 610 nM.
The matching figures for `C[C@@H](/C=C\S(C)(=O)=O)NC(=O)C1(F)CCN(S(=O)(=O)c2ccc(Cl)cc2-c2cccc(Cl)c2)CC1` [Compound 3, (S,Z)-1-((3′,5-dichloro-[1,1′-biphenyl]-2-yl)sulfonyl)-4-fluoro-N-(4-(methylsulfonyl)but-3-en-2-yl)piperidine-4-carboxamide]: 110 nM and 90 nM.
`COc1cc(-c2ccccc2Cl)c(S(=O)(=O)N2CCC(F)(C(=O)N[C@H](C)/C=C\S(C)(=O)=O)CC2)cn1` [Compound 186, 1-[[4-(2-chlorophenyl)-6-methoxy-3-pyridyl]sulfonyl]-4-fluoro-N—[(Z,1R)-1-methyl-3-methylsulfonyl-allyl]piperidine-4-carboxamide]: the results for the IC50 in test [1] and in test [2] were 226 nM and 493 nM, respectively.
The matching figures for `C[C@@H](/C=C\S(C)(=O)=O)NC(=O)C1(F)CCN(S(=O)(=O)c2ccc(N(C)C)cc2-c2ccccc2)CC1` [Compound 88, (S,Z)-1-((5-(dimethylamino)-[1,1′-biphenyl]-2-yl)sulfonyl)-4-fluoro-N-(4-(methylsulfonyl)but-3-en-2-yl)piperidine-4-carboxamide]: 86 nM and 79 nM.
The like results for `C[C@H](/C=C\S(C)(=O)=O)NC(=O)C1(F)CCN(S(=O)(=O)c2ccc(N3CCC3)cc2-c2ccccc2Cl)CC1` [Compound 124, (R,Z)-1-((5-(azetidin-1-yl)-2′-chloro-[1,1′-biphenyl]-2-yl)sulfonyl)-4-fluoro-N-(4-(methylsulfonyl)but-3-en-2-yl)piperidine-4-carboxamide] were, in that order, 150 nM and 320 nM.
Regarding `C[C@H](/C=C\S(C)(=O)=O)NC(=O)C1(F)CCN(S(=O)(=O)c2ccc(F)cc2-c2ccccc2Cl)CC1` [Compound 31, (R,Z)-1-((2′-chloro-5-fluoro-[1,1′-biphenyl]-2-yl)sulfonyl)-4-fluoro-N-(4-(methylsulfonyl)but-3-en-2-yl)piperidine-4-carboxamide], the IC50 came out at 620 nM in test [1] and 760 nM in test [2].

The values above are taken from patent US20250026721A1, “COMPOUNDS AND METHODS FOR MODULATING RAS-PI3K” (Vividion Therapeutics, Inc., priority 2023, published 2025).
